Test results as given in ChEMBL document CHEMBL4507287, “Data for DCP probe MRL-650” (2021).

Legend:
[1] = tested on: Tyrosine-protein kinase ABL1 (Homo sapiens), P00519 [F317L]; details: Compound concentration 1000.0 nM
[2] = target: Aurora kinase B (Homo sapiens) (UniProt Q96GD4); details: Compound concentration 1000.0 nM
[3] = target: Bone morphogenetic protein receptor type-1A (Homo sapiens) (UniProt P36894); details: Compound concentration 1000.0 nM
[4] = target: Calcium/calmodulin-dependent protein kinase kinase 1 (Homo sapiens) (UniProt Q8N5S9); details: Compound concentration 1000.0 nM
[5] = target: Cyclin-dependent kinase 4 (Homo sapiens) (UniProt P11802); details: Compound concentration 1000.0 nM
Sequence of Cyclin-dependent kinase 4 (Homo sapiens) (P11802 whole entry, canonical isoform): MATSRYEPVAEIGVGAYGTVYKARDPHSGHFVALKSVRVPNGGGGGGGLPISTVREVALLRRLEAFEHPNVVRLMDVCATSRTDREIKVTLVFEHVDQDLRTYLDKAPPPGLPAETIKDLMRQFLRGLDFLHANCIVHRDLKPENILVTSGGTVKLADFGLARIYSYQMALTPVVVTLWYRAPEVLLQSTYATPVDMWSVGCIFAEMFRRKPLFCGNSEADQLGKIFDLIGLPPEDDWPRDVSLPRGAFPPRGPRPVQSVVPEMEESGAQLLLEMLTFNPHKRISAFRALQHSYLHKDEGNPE

[6] = target: Cyclin-dependent kinase 4 (Homo sapiens) (UniProt P11802); details: Compound concentration 1000.0 nM; remark: listed apart in the source
[7] = target: Casein kinase I isoform gamma-1 (Homo sapiens) (UniProt Q9HCP0); details: Compound concentration 1000.0 nM
Sequence of Casein kinase I isoform gamma-1 (Homo sapiens) (Q9HCP0 whole entry, looked up, canonical isoform): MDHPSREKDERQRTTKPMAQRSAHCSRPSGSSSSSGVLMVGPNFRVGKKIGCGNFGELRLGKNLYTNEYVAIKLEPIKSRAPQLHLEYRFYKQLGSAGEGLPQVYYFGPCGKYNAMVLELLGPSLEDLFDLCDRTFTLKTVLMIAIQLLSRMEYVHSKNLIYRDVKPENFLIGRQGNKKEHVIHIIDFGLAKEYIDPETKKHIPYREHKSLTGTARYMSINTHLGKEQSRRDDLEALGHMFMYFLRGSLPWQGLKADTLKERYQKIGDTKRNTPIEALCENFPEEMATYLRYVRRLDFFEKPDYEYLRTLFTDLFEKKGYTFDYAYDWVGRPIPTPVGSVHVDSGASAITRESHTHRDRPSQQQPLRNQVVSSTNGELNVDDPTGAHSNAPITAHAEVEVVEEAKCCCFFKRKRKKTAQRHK

[8] = target: Myotonin-protein kinase (Homo sapiens) (UniProt Q09013); details: Compound concentration 1000.0 nM
[9] = target: Serine/threonine-protein kinase MRCK gamma (Homo sapiens) (UniProt Q6DT37); details: Compound concentration 1000.0 nM
Sequence of Serine/threonine-protein kinase MRCK gamma (Homo sapiens) (Q6DT37 whole entry): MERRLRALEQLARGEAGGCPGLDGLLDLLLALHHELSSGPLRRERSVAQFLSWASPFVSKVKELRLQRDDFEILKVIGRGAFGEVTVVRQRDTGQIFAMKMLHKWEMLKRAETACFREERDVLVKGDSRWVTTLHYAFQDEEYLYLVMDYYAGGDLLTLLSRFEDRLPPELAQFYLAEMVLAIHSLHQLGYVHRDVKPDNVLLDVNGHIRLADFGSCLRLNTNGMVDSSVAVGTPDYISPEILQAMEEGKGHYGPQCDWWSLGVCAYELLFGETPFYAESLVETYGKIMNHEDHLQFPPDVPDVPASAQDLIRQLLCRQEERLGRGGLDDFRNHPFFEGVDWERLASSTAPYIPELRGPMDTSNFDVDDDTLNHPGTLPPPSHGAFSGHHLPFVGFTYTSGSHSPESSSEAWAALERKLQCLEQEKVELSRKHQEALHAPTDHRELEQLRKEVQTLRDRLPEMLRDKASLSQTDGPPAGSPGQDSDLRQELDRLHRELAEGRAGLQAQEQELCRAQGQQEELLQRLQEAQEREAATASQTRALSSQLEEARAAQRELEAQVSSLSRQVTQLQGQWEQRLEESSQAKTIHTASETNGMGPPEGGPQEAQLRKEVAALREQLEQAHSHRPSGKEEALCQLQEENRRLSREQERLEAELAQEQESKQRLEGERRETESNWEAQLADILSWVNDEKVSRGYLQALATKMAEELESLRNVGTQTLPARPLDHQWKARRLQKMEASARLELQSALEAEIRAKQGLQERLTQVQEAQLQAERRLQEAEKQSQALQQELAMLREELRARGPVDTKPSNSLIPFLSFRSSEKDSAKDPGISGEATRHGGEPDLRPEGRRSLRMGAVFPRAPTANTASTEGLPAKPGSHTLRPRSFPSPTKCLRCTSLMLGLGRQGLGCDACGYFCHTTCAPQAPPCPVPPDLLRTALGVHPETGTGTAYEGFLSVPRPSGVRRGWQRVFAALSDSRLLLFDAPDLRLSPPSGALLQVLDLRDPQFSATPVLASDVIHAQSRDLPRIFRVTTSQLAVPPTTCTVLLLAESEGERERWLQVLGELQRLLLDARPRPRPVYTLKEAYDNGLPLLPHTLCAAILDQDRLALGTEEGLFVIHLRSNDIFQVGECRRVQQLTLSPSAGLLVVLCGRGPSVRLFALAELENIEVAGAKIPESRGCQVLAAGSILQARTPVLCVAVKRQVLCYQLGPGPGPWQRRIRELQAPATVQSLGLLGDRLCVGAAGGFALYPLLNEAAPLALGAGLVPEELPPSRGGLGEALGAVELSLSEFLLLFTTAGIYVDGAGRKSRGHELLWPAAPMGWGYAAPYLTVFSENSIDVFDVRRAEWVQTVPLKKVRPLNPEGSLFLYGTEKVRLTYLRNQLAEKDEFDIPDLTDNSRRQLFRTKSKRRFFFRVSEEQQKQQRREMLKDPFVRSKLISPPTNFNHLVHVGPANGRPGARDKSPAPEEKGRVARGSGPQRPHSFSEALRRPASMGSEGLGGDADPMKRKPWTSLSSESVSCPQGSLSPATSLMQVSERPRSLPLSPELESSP

[10] = target: Serine/threonine-protein kinase 17A (Homo sapiens) (UniProt Q9UEE5); details: Compound concentration 1000.0 nM
[11] = target: Epidermal growth factor receptor (Homo sapiens) (UniProt P00533); details: Compound concentration 1000.0 nM
[12] = target: Ephrin type-A receptor 1 (Homo sapiens) (UniProt P21709); details: Compound concentration 1000.0 nM
[13] = target: Ephrin type-A receptor 3 (Homo sapiens) (UniProt P29320); details: Compound concentration 1000.0 nM
[14] = target: Ephrin type-B receptor 1 (Homo sapiens) (UniProt P54762); details: Compound concentration 1000.0 nM
[15] = target: Focal adhesion kinase 1 (Homo sapiens) (UniProt Q05397); details: Compound concentration 1000.0 nM
[16] = tested on: Fibroblast growth factor receptor 3 (Homo sapiens), P22607 [G697C]; details: Compound concentration 1000.0 nM
[17] = target: Insulin-like growth factor 1 receptor (Homo sapiens) (UniProt P08069); details: Compound concentration 1000.0 nM
[18] = target: Insulin receptor (Homo sapiens) (UniProt P06213); details: Compound concentration 1000.0 nM
[19] = target: Interleukin-1 receptor-associated kinase 3 (Homo sapiens) (UniProt Q9Y616); details: Compound concentration 1000.0 nM
[20] = target: Tyrosine-protein kinase JAK3 (Homo sapiens) (UniProt P52333); details: Compound concentration 1000.0 nM
[21] = tested on: Mast/stem cell growth factor receptor Kit (Homo sapiens), P10721 [V559D]; details: Compound concentration 1000.0 nM
[22] = target: LIM domain kinase 1 (Homo sapiens) (UniProt P53667); details: Compound concentration 1000.0 nM
[23] = target: Serine/threonine-protein kinase MARK2 (Homo sapiens) (UniProt Q7KZI7); details: Compound concentration 1000.0 nM
[24] = target: Serine/threonine-protein kinase mTOR (Homo sapiens) (UniProt P42345); details: Compound concentration 1000.0 nM
[25] = target: Myosin-IIIa (Homo sapiens) (UniProt Q8NEV4); details: Compound concentration 1000.0 nM
[26] = target: Serine/threonine-protein kinase Nek1 (Homo sapiens) (UniProt Q96PY6); details: Compound concentration 1000.0 nM
[27] = target: Serine/threonine-protein kinase Nek2 (Homo sapiens) (UniProt P51955); details: Compound concentration 1000.0 nM
Sequence of Serine/threonine-protein kinase Nek2 (Homo sapiens) (P51955 whole entry): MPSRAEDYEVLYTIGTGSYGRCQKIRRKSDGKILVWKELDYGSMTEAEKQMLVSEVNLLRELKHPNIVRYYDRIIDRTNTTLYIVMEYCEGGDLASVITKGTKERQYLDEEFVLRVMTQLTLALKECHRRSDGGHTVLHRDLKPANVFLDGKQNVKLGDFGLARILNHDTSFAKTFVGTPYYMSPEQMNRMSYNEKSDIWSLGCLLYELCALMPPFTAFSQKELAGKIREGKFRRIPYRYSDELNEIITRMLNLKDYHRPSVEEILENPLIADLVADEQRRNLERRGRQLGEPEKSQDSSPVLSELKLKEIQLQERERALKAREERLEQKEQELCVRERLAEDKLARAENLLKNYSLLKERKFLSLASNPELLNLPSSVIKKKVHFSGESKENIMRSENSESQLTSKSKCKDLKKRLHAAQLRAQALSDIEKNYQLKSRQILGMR

[28] = target: Serine/threonine-protein kinase PAK 1 (Homo sapiens) (UniProt Q13153); details: Compound concentration 1000.0 nM
[29] = target: Cyclin-dependent kinase 15 (Homo sapiens) (UniProt Q96Q40); details: Compound concentration 1000.0 nM
[30] = tested on: Phosphatidylinositol 4,5-bisphosphate 3-kinase catalytic subunit alpha isoform (Homo sapiens), P42336 [Q546K]; details: Compound concentration 1000.0 nM
[31] = target: 1-phosphatidylinositol 3-phosphate 5-kinase (Homo sapiens) (UniProt Q9Y2I7); details: Compound concentration 1000.0 nM
[32] = target: Phosphatidylinositol 5-phosphate 4-kinase type-2 beta (Homo sapiens) (UniProt P78356); details: Compound concentration 1000.0 nM
[33] = target: Serine/threonine-protein kinase PLK1 (Homo sapiens) (UniProt P53350); details: Compound concentration 1000.0 nM
[34] = target: Ribosomal protein S6 kinase alpha-1 (Homo sapiens) (UniProt Q15418); details: Compound concentration 1000.0 nM
[35] = target: Serine/threonine-protein kinase SIK1 (Homo sapiens) (UniProt P57059); details: Compound concentration 1000.0 nM
Sequence of Serine/threonine-protein kinase SIK1 (Homo sapiens) (P57059 whole entry): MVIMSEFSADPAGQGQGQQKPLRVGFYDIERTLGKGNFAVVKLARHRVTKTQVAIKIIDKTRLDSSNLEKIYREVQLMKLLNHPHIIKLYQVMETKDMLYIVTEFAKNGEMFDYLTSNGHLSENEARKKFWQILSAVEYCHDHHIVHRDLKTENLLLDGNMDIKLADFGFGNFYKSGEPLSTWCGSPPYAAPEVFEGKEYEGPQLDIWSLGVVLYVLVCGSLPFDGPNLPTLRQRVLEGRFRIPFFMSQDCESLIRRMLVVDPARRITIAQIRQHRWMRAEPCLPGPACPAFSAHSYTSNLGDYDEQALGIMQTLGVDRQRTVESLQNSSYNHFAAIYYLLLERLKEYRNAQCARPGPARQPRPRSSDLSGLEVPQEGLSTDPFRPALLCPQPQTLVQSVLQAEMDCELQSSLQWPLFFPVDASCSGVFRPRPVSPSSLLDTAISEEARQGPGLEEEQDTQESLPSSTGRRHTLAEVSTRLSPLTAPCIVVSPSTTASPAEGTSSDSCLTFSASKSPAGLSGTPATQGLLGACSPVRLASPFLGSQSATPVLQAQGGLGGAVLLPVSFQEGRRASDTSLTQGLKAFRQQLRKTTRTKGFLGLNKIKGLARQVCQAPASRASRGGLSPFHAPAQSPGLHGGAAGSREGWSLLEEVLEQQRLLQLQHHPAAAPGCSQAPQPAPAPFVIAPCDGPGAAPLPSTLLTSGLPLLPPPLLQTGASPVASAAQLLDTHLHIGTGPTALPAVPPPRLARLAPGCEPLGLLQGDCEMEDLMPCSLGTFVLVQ

[36] = target: NUAK family SNF1-like kinase 2 (Homo sapiens) (UniProt Q9H093); details: Compound concentration 1000.0 nM
[37] = target: Serine/threonine-protein kinase TAO3 (Homo sapiens) (UniProt Q9H2K8); details: Compound concentration 1000.0 nM
[38] = target: Tyrosine-protein kinase receptor Tie-1 (Homo sapiens) (UniProt P35590); details: Compound concentration 1000.0 nM
[39] = target: Testis-specific serine/threonine-protein kinase 3 (Homo sapiens) (UniProt Q96PN8); details: Compound concentration 1000.0 nM
[40] = target: Serine/threonine-protein kinase WNK2 (Homo sapiens) (UniProt Q9Y3S1); details: Compound concentration 1000.0 nM
[41] = target: 5-hydroxytryptamine receptor 1B (Homo sapiens) (UniProt P28222); details: Compound concentration 10.0 uM
[42] = target: 5-hydroxytryptamine receptor 1D (Homo sapiens) (UniProt P28221); details: Compound concentration 10.0 uM
[43] = target: 5-hydroxytryptamine receptor 3A (Homo sapiens) (UniProt P46098); details: Compound concentration 10.0 uM
Sequence of 5-hydroxytryptamine receptor 3A (Homo sapiens) (P46098 whole entry): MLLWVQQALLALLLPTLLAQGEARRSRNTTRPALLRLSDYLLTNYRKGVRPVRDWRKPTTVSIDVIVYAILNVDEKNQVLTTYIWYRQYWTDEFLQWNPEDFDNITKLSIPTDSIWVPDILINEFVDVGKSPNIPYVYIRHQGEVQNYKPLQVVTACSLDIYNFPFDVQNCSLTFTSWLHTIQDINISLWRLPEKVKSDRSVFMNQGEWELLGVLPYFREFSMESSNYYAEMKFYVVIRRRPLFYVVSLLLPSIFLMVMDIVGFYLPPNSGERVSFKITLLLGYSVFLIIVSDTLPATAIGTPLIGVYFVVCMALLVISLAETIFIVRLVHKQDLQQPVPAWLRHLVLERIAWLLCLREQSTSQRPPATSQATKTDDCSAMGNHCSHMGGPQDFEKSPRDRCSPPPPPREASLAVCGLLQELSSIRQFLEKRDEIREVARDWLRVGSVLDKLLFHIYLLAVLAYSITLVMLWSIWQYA

[44] = target: Kappa-type opioid receptor (Homo sapiens) (UniProt P41145); details: Compound concentration 10.0 uM
[45] = target: Histamine H2 receptor (Homo sapiens) (UniProt P25021); details: Compound concentration 10.0 uM
Sequence of Histamine H2 receptor (Homo sapiens) (P25021 whole entry): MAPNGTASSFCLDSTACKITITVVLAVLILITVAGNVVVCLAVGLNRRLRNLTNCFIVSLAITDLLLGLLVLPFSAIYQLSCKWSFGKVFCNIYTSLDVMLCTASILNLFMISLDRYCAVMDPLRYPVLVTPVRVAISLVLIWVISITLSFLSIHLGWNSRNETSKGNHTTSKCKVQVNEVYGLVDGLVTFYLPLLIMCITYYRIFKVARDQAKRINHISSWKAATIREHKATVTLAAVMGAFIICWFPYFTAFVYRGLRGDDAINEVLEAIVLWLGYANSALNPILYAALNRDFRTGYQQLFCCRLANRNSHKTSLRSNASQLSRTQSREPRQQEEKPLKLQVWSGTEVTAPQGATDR

[46] = target: Muscarinic acetylcholine receptor M3 (Homo sapiens) (UniProt P20309); details: Compound concentration 10.0 uM

Sequence of Bone morphogenetic protein receptor type-1A (Homo sapiens) (P36894 whole entry): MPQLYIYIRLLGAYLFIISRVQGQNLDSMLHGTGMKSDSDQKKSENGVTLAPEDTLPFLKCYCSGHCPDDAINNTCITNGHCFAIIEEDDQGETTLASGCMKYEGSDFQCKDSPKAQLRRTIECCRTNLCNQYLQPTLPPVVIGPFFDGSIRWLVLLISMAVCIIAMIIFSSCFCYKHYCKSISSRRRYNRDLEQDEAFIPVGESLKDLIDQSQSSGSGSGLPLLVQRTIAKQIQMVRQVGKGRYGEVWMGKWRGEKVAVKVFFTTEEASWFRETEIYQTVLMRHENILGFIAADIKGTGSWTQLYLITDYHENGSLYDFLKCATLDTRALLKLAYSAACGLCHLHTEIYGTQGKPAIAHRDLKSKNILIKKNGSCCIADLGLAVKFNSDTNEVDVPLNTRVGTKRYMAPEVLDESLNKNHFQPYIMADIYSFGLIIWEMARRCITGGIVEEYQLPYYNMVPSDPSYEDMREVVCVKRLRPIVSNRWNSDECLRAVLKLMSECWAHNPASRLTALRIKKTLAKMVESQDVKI

SMILES: CC(=O)Nc1c(C(C)=O)c(=O)n(C)c2nc(-c3ccc(Cl)cc3Cl)c(-c3ccc(Cl)cc3)cc12 [NAPHTHYRIDINONE]
- residual activity [1]: 100%
- residual activity [2]: 92%
- residual activity [3]: 85%
- residual activity [4]: 100%
- residual activity [5]: 87%
- residual activity [6]: 100%
- residual activity [7]: 100%
- residual activity [8]: 100%
- residual activity [9]: 100%
- residual activity [10]: 100%
- residual activity [11]: 100%
- residual activity [12]: 100%
- residual activity [13]: 100%
- residual activity [14]: 100%
- residual activity [15]: 100%
- residual activity [16]: 100%
- residual activity [17]: 100%
- residual activity [18]: 100%
- residual activity [19]: 95%
- residual activity [20]: 100%
- residual activity [21]: 100%
- residual activity [22]: 100%
- residual activity [23]: 100%
- residual activity [24]: 100%
- residual activity [25]: 100%
- residual activity [26]: 100%
- residual activity [27]: 100%
- residual activity [28]: 100%
- residual activity [29]: 100%
- residual activity [30]: 100%
- residual activity [31]: 100%
- residual activity [32]: 91%
- residual activity [33]: 100%
- residual activity [34]: 100%
- residual activity [35]: 100%
- residual activity [36]: 100%
- residual activity [37]: 63%
- residual activity [38]: 100%
- residual activity [39]: 100%
- residual activity [40]: 95%
- inhibition [41]: 43.6%
- inhibition [42]: 32.9%
- inhibition [43]: 5.67%
- inhibition [44]: 7.96%
- inhibition [45]: 6.71%
- inhibition [46]: -6.59%

SMILES: CC(=O)c1c(NS(C)(=O)=O)c2cc(-c3ccc(Cl)cc3)c(-c3ccc(Cl)cc3Cl)nc2n(C)c1=O [MRL-CB1-NC]
- residual activity [1]: 89%
- residual activity [2]: 100%
- residual activity [3]: 95%
- residual activity [4]: 100%
- residual activity [5]: 63%
- residual activity [6]: 100%
- residual activity [7]: 92%
- residual activity [8]: 89%
- residual activity [9]: 100%
- residual activity [10]: 88%
- residual activity [11]: 100%
- residual activity [12]: 100%
- residual activity [13]: 92%
- residual activity [14]: 100%
- residual activity [15]: 100%
- residual activity [16]: 100%
- residual activity [17]: 100%
- residual activity [18]: 73%
- residual activity [19]: 100%
- residual activity [20]: 100%
- residual activity [21]: 100%
- residual activity [22]: 88%
- residual activity [23]: 100%
- residual activity [24]: 100%
- residual activity [25]: 88%
- residual activity [26]: 100%
- residual activity [27]: 100%
- residual activity [28]: 96%
- residual activity [29]: 100%
- residual activity [30]: 86%
- residual activity [31]: 66%
- residual activity [32]: 65%
- residual activity [33]: 87%
- residual activity [34]: 88%
- residual activity [35]: 100%
- residual activity [36]: 89%
- residual activity [37]: 72%
- residual activity [38]: 100%
- residual activity [39]: 100%
- residual activity [40]: 62%
- inhibition [41]: -2.36%
- inhibition [42]: 68.5%
- inhibition [43]: 3.2%
- inhibition [44]: 2.99%
- inhibition [45]: 13.8%
- inhibition [46]: 4.36%
